Test results from patent publication US20220323406A1, “METHODS AND COMPOSITIONS FOR DIFFERENTIATING STEM CELLS” (Massachusetts Institute of Technology, priority 2019, published 2022).

Key:
[1] = system: ENR+CD organoids (ISC to Paneth cell differentiation); experiment: Primary screen: basal (non-stimulated) lysozyme secretion LYZ.NS, 2.5-D 384-well ENR+CD organoid differentiation; type: cell-based, mouse; settings: for Dose.FC.LYZ.NS / Z.LYZ.NS: primary screen; for Z.LYZ.NS: standard z score
Text: (§1) High-throughput screening.

[2] = system: ENR+CD organoids (ISC to Paneth cell differentiation); experiment: Primary screen: CCh-stimulated lysozyme secretion LYZ.S, 2.5-D 384-well ENR+CD organoid differentiation; type: cell-based, mouse; settings: primary screen
Text: as §1

[3] = system: ENR+CD organoids (ISC to Paneth cell differentiation); experiment: Secondary (validation) screen: LYZ.NS basal lysozyme secretion, 2.5-D 384-well ENR+CD organoids; type: cell-based, mouse; settings: 6-day ENR+CD, vs ENR+CD+DMSO
Experimental: (§2) Drugs were tested at a narrowed dose range around each treatment's identified optimal dose from the primary screen (4× below, 2× above and below).
as §1
(§3) Secondary lysozyme secretion assay screen. Confirmatory secondary screening with primary hits was performed using the above 384-well plate method. The screen was conducted with 4-plate replicates with a base media of ENR+CD. Media was supplemented with compound at day 0 and day 3 (n=8 well replicates per dose) at four different doses: two-fold above, two-fold below, and four-fold below the optimal final dose for each respective treatment. Additionally, each plate carried a large number of ENR+DMSO or ENR+CD+DMSO (vehicle) control wells (n=100 for ATP, and n=25 for LYZ.NS and LYZ.S) for robust normalization. ATP, non-stimulated lysozyme activity and CCh-stimulated lysozyme activity was again measured and the collected data was again processed in a custom R-script, per primary screen with slight modification. Values were log10 transformed, and a plate-wise FC was calculated for each well based on the median value of ENR+CD+DMSO (vehicle) control wells to normalize plate to plate variability.

[4] = system: ENR+CD organoids (ISC to Paneth cell differentiation); experiment: Secondary (validation) screen: LYZ.S CCh-stimulated lysozyme secretion, 2.5-D 384-well ENR+CD organoids; type: cell-based, mouse; settings: 6-day ENR+CD, vs ENR+CD+DMSO
Experimental: as §2, §1, §3

ENR+CD organoids [5] = experiment: Secondary (validation) screen: ATP (CTG) assay, 2.5-D 384-well ENR+CD organoids; type: cell-based, mouse; settings: 6-day ENR+CD, vs ENR+CD+DMSO
Experimental: as §2, §1, §3

ENR+CD organoids [6] = experiment: Primary screen: ATP (CellTiter-Glo 3D, CTG) cell number/viability, 2.5-D 384-well ENR+CD organoids; settings: primary screen;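 further: compounds given at plating and again on day 3 over a 6-day differentiation from ENR+CV stem-cell-enriched precursors, ATP measured on day 6, plate median as control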

Structure (SMILES)	Dose.FC.LYZ.NS ([1]; dose 0.08 uM) [log2 fold change]	Dose.FC.LYZ.NS ([1]; dose 0.40 uM) [log2 fold change]	Dose.FC.LYZ.NS ([1]; dose 2.00 uM) [log2 fold change]	Dose.FC.LYZ.NS ([1]; dose 10.00 uM) [log2 fold change]	Z.LYZ.NS ([1]; dose 0.08 uM)	Z.LYZ.NS ([1]; dose 0.40 uM)	Z.LYZ.NS ([1]; dose 2.00 uM)	Z.LYZ.NS ([1]; dose 10.00 uM)	Dose.FC.LYZ.S ([2]; dose 0.08 uM) [log2 fold change]	Dose.FC.LYZ.S ([2]; dose 0.40 uM) [log2 fold change]	Dose.FC.LYZ.S ([2]; dose 2.00 uM) [log2 fold change]	Dose.FC.LYZ.S ([2]; dose 10.00 uM) [log2 fold change]	Dose.FC.LYZ.NS ([3]; 0.02 uM) [log2 fold change]	Dose.FC.LYZ.NS ([3]; 0.04 uM) [log2 fold change]	Dose.FC.LYZ.NS ([3]; 0.08 uM) [log2 fold change]	Dose.FC.LYZ.NS ([3]; […]) [log2 fold change]	Dose.FC.LYZ.S ([4]; 0.02 uM) [log2 fold change]	Dose.FC.LYZ.S ([4]; 0.04 uM) [log2 fold change]	Dose.FC.LYZ.S ([4]; 0.08 uM) [log2 fold change]	Dose.FC.LYZ.S ([4]; […]) [log2 fold change]	also measured
CC(C)(C)NC(=O)[C@H]1CC[C@H]2[C@@H]3CC[C@H]4NC(=O)C=C[C@]4(C)[C@H]3CC[C@]12C [Finasteride, reference compound]	0.205	0.213	0.142	0.067	1.781	1.852	1.236	0.587	0.199	0.211	0.156	0.056	0.056	−0.189	−0.191	−0.203	−0.019	−0.260	−0.242	−0.253	primary screen hit call (SSMD and z-scored FC cutoffs in both LYZ assays) ([1]; LYZ.NS and LYZ.S, 0.08-10 uM, 6 days ENR+CD): sole hit in their respective pathway; Dose.FC.CTG (ENR+CD organoids [5]; 0.02 uM): 0.066 log2 fold change; Dose.FC.CTG (ENR+CD organoids [5]; 0.04 uM): −0.180 log2 fold change; Dose.FC.CTG (ENR+CD organoids [5]; 0.08 uM): −0.011 log2 fold change; Dose.FC.CTG (ENR+CD organoids [5]; […]): −0.065 log2 fold change; Dose.FC.CTG (ENR+CD organoids [6]; dose 0.08 uM): 0.151 log2 fold change; Dose.FC.CTG (ENR+CD organoids [6]; dose 0.40 uM): −0.038 log2 fold change; Dose.FC.CTG (ENR+CD organoids [6]; dose 2.00 uM): 0.073 log2 fold change; Dose.FC.CTG (ENR+CD organoids [6]; dose 10.00 uM): −0.041 log2 fold change
CCOc1ccc(Cc2cc([C@@H]3O[C@H](CO)[C@@H](O)[C@H](O)[C@H]3O)ccc2Cl)cc1 [Dapagliflozin, reference compound]	0.170	0.097	0.159	0.136	1.481	0.842	1.386	1.182	0.294	0.135	0.166	0.145	0.022	0.150	0.058	−0.060	−0.019	0.069	0.069	−0.082	Dose.FC.CTG (ENR+CD organoids [5]; 0.02 uM): 0.085 log2 fold change; Dose.FC.CTG (ENR+CD organoids [5]; 0.04 uM): 0.174 log2 fold change; Dose.FC.CTG (ENR+CD organoids [5]; 0.08 uM): 0.149 log2 fold change; Dose.FC.CTG (ENR+CD organoids [5]; […]): 0.035 log2 fold change; Dose.FC.CTG (ENR+CD organoids [6]; dose 0.08 uM): 0.410 log2 fold change; Dose.FC.CTG (ENR+CD organoids [6]; dose 0.40 uM): 0.254 log2 fold change; Dose.FC.CTG (ENR+CD organoids [6]; dose 2.00 uM): 0.293 log2 fold change; Dose.FC.CTG (ENR+CD organoids [6]; dose 10.00 uM): 0.301 log2 fold change
